{"source": "patent US20140271831A1", "about": "“RACECADOTRIL LIQUID COMPOSITIONS” (McNeil-PPC, Inc., priority 2013, published 2014)", "key": {"[1]": {"experiment": "Stability of Racecadotril in Beta-Hydroxypropyl-Cyclodextrin (Beta-HPCD)", "assay_type": "physicochemical", "experimental": "(§1) Formulations of racecadotril in beta-hydroxypropyl-cyclodextrin were evaluated (Table 4). • 1. Pipet 1 mL of Racecadotril solution into a 100 mL volumetric flask (V.F.) • 2. Dilute to volume with the same buffer used in the solution preparation. • 3. […] Parameters may be modified to optimize chromatography. • The assay of Racecadotril is determined by using the external standard injected. The degradation products levels are determined by % peak area relative to the Racecadotril peak. [table] [table] Mobil Phase A: Phosphate buffer, pH 2.5 (Buffer prep: dissolve 1 g of potassium dihydrogen phosphate in water, adjust to pH 2.5 with phosphoric acid, dilute to 1000 mL with water) Mobil Phase B: 100% Acetonitrile"}, "[2]": {"experiment": "Solubility of racecadotril in water, buffer and Beta-HPCD (statements)", "assay_type": "physicochemical"}, "[3]": {"experiment": "Stability of Racecadotril in Water", "assay_type": "physicochemical", "experimental": "as §1, with “For comparative purposes, the stability” for “Formulations”, “was tested at room temperature and at 40° C.” for “in beta-hydroxypropyl-cyclodextrin were evaluated (Table 4).”"}, "[4]": {"details": "cited from earlier work"}}}
{"smiles": "CC(=O)SCC(Cc1ccccc1)C(=O)NCC(=O)OCc1ccccc1", "note": "(racemic) [Racecadotril]", "values": [{"measurement": "stability in Beta-HPCD compared with buffers alone", "setting": "[1]", "result": "stability is similar to that in buffers alone"}, {"measurement": "Racecadotril in Beta-HPCD at 40° C. (%) with pH Adjustment to 4.5, Acetate Buffer", "setting": "[1]; 1 Week", "result": 96.16, "unit": "%"}, {"measurement": "Racecadotril in Beta-HPCD at 40° C. (%) with pH Adjustment to 4.5, Citrate Buffer", "setting": "[1]; 1 Week", "result": 96.20, "unit": "%"}, {"measurement": "Racecadotril in Beta-HPCD at 40° C. (%) without pH Adjustment, Acetate Buffer", "setting": "[1]; 1 Week", "result": 94.1, "unit": "%"}, {"measurement": "Racecadotril in Beta-HPCD at 40° C. (%) without pH Adjustment, Citrate Buffer", "setting": "[1]; 1 Week", "result": 93.6, "unit": "%"}, {"measurement": "Racecadotril in Beta-HPCD at 40° C. (%) with pH Adjustment to 4.5, Acetate Buffer", "setting": "[1]; 2 Weeks", "result": 92.7, "unit": "%"}, {"measurement": "Racecadotril in Beta-HPCD at 40° C. (%) with pH Adjustment to 4.5, Citrate Buffer", "setting": "[1]; 2 Weeks", "result": 92.91, "unit": "%"}, {"measurement": "Racecadotril in Beta-HPCD at 40° C. (%) with pH Adjustment to 4.5, Acetate Buffer", "setting": "[1]; 3 Weeks", "result": 88.95, "unit": "%"}, {"measurement": "Racecadotril in Beta-HPCD at 40° C. (%) with pH Adjustment to 4.5, Citrate Buffer", "setting": "[1]; 3 Weeks", "result": 89.59, "unit": "%"}, {"measurement": "Racecadotril in Beta-HPCD at 40° C. (%) with pH Adjustment to 4.5, Acetate Buffer", "setting": "[1]; 4 Weeks", "result": 85.84, "unit": "%"}, {"measurement": "Racecadotril in Beta-HPCD at 40° C. (%) with pH Adjustment to 4.5, Citrate Buffer", "setting": "[1]; 4 Weeks", "result": 86.80, "unit": "%"}, {"measurement": "Racecadotril in Beta-HPCD at 40° C. (%) with pH Adjustment to 4.5, Acetate Buffer", "setting": "[1]; 12 Hours", "result": 98.07, "unit": "%"}, {"measurement": "Racecadotril in Beta-HPCD at 40° C. (%) with pH Adjustment to 4.5, Citrate Buffer", "setting": "[1]; 12 Hours", "result": 98.12, "unit": "%"}, {"measurement": "Racecadotril in Beta-HPCD at 40° C. (%) without pH Adjustment, Acetate Buffer", "setting": "[1]; 12 Hours", "result": 96.9, "unit": "%"}, {"measurement": "Racecadotril in Beta-HPCD at 40° C. (%) without pH Adjustment, Citrate Buffer", "setting": "[1]; 12 Hours", "result": 96.9, "unit": "%"}, {"measurement": "Racecadotril in Beta-HPCD at 40° C. (%) with pH Adjustment to 4.5, Acetate Buffer", "setting": "[1]; Initial", "result": 99.58, "unit": "%"}, {"measurement": "Racecadotril in Beta-HPCD at 40° C. (%) with pH Adjustment to 4.5, Citrate Buffer", "setting": "[1]; Initial", "result": 99.58, "unit": "%"}, {"measurement": "Racecadotril in Beta-HPCD at 40° C. (%) without pH Adjustment, Acetate Buffer", "setting": "[1]; Initial", "result": 99.5, "unit": "%"}, {"measurement": "Racecadotril in Beta-HPCD at 40° C. (%) without pH Adjustment, Citrate Buffer", "setting": "[1]; Initial", "result": 99.3, "unit": "%"}, {"measurement": "solubility in buffer compared with water", "setting": "[2]", "result": "more soluble in buffer than in water"}, {"measurement": "solubility utilizing the Beta-HPCD compared with buffers alone", "setting": "[2]", "result": "higher solubility"}, {"measurement": "Racecadotril (%) in Water at 40° C.", "setting": "[3]; 1 Week", "result": 0, "unit": "%"}, {"measurement": "Racecadotril (%) in Water at Room Temperature", "setting": "[3]; 1 Week", "result": 1.0, "unit": "%"}, {"measurement": "Racecadotril (%) in Water at 40° C.", "setting": "[3]; 2 Weeks", "result": 0.2, "unit": "%"}, {"measurement": "Racecadotril (%) in Water at Room Temperature", "setting": "[3]; 2 Weeks", "result": 0.0, "unit": "%"}, {"measurement": "Racecadotril (%) in Water at Room Temperature", "setting": "[3]; 12 Hours", "result": 44.9, "unit": "%"}, {"measurement": "Racecadotril (%) in Water at 40° C.", "setting": "[3]; Initial", "result": 78.88, "unit": "%"}, {"measurement": "Racecadotril (%) in Water at Room Temperature", "setting": "[3]; Initial", "result": 74.88, "unit": "%"}, {"measurement": "racecadotril present", "setting": "[3]; in water, at 1 week", "result": "less than 1%"}, {"measurement": "stability of racecadotril in water", "setting": "[3]; room temperature and 40° C., after 12 hours", "result": "unstable"}, {"measurement": "water solubility", "setting": "[4]", "result": "low water solubility"}]}
